The source of these data is patent US12612410B2 (CHILDREN'S HOSPITAL MEDICAL CENTER, priority 2020, dated 2026).

The experiment addresses T1, FLT3 ITD (Homo sapiens, UniProt P36888).
T1 construct: fused on or other part: DNA tag for qPCR detection (T7 phage fusion or DNA-tagged protein from HEK-293 cells)
T1 sequence (P36888 1-993): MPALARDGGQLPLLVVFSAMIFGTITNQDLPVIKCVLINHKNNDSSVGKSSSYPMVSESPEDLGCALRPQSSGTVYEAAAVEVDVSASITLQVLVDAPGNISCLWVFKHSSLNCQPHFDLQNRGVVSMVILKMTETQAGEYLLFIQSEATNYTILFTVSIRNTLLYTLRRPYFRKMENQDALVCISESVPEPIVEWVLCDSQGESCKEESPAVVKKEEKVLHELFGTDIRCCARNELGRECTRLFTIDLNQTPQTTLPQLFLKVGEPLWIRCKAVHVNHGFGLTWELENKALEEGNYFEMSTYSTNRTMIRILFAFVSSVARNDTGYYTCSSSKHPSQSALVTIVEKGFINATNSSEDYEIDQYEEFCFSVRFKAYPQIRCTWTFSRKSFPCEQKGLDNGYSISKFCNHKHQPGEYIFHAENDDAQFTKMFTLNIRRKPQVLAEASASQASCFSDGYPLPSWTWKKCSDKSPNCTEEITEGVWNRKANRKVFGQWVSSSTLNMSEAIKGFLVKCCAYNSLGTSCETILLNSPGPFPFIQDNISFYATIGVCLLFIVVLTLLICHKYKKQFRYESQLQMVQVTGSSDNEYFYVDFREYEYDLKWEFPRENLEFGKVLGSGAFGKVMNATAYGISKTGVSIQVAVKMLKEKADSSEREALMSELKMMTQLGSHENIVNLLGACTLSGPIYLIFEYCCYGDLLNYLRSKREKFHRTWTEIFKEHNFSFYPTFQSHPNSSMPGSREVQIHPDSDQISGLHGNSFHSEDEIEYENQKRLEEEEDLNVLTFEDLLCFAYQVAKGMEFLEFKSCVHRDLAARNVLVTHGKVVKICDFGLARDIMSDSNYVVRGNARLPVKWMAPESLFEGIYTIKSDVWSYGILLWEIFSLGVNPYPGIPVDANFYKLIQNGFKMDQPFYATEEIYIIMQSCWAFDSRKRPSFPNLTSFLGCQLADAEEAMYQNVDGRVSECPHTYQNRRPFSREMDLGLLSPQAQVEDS
The experiment is described as follows: DiscoverX KINOMEscan competition binding, FLT3 ITD. The text has this: Kinase binding data were obtained for various exemplary compounds prepared according to Examples 1-24 using the DiscoverX KINOMVIEscan® active site-directed competition binding site-directed assay protocol described below. […] As a result, the data report thermodynamic interaction affinities (Kd values), rather than IC50 values that are dependent on ATP concentrations. The assay uses a DNA-tagged version of the protein kinase, and an immobilized ligand bound to a solid support. Compounds that directly or indirectly prevent kinase binding to the immobilized ligand reduce the amount of kinase captured on the solid support, which is detected using an ultra-sensitive qPCR method. Affinity constants reported from the assay have been reported to be independent of the immobilized ligand used that is coupled to the solid support (See supplemental information in Fabian, M. A. et. al., (2005) Nat. Biotechnol. 23, 329-336; Wodicka, L. M. et. al., (2010) Chem. Biol. 17, 1241-1249.)
Kinase-tagged T7 phage strains were prepared in an E. coli host derived from the BL21 strain. E. coli were grown to log-phase and infected with T7 phage and incubated with shaking at 32° C. until lysis. The lysates were centrifuged and filtered to remove cell debris. The remaining kinases were produced in HEK-293 cells and subsequently tagged with DNA for qPCR detection. Streptavidin-coated magnetic beads were treated with biotinylated small molecule ligands for 30 minutes at room temperature to generate affinity resins for kinase assays. The liganded beads were blocked with excess biotin and washed with blocking buffer (SeaBlock (Pierce), 1% BSA, 0.05% Tween 20, 1 mM DTT) to remove unbound ligand and to reduce non-specific binding. Binding reactions were assembled by combining kinases, liganded affinity beads, and test compounds in 1× binding buffer (20% SeaBlock, 0.17×PBS, 0.05% Tween 20, 6 mM DTT). Test compounds were prepared as 111× stocks in 100% DMSO. Kds were determined using an 11-point 3-fold compound dilution series with three DMSO control points. All compounds for Kd measurements are distributed by acoustic transfer (non-contact dispensing) in 100% DMSO. The compounds were then diluted directly into the assays such that the final concentration of DMSO was 0.9%. All reactions were performed in polypropylene 384-well plates. Each was a final volume of 0.02 mL. The assay plates were incubated at room temperature with shaking for 1 hour and the affinity beads were washed with wash buffer (1×PBS, 0.05% Tween 20). The beads were then re-suspended in elution buffer (1×PBS, 0.05% Tween 20, 0.5 μM nonbiotinylated affinity ligand) and incubated at room temperature with shaking for 30 minutes. The kinase concentration in the eluates was measured by qPCR.
Binding constants (Kds) were calculated with a standard dose-response curve using the Hill equation. The Hill Slope was set to −1. Curves were fitted using a non-linear least square fit with the Levenberg-Marquardt algorithm.

For `CC1(c2cn3c(-c4cccc(N[C@H]5CNC[C@@H]5F)n4)cnc3cn2)CC1` [Compound 1, N-((3S,4S)-4-fluoropyrrolidin-3-yl)-6-(6-(1-methylcyclopropyl)imidazo[1,2-a]pyrazin-3-yl)pyridin-2-amine], the Kd (in general, the concentration at which binding is half-saturated) is 0.087 nM.
For the molecule `CC1(c2cn3c(-c4cccc(N[C@@H]5CCNC5)n4)cnc3cn2)CC1` [Compound 3, (R)-6-(6-(1-methylcyclopropyl)imidazo[1,2-a]pyrazin-3-yl)-N-(pyrrolidin-3-yl)pyridin-2-amine], the Kd was determined as 0.14 nM.
The same measure for `CC1(c2cn3c(-c4cccc(N[C@H]5CNCC56CC6)n4)cnc3cn2)CC1` [Compound 5, (R)-N-(6-(6-(1-methylcyclopropyl)imidazo[1,2-a]pyrazin-3-yl)pyridin-2-yl)-5-azaspiro[2.4]heptan-7-amine]: 0.11 nM.
The same measure for `FC(F)(F)C1(c2cn3c(-c4cccc(N[C@@H]5CCNC5)n4)cnc3cn2)CC1` [Compound 10, (R)-N-(pyrrolidin-3-yl)-6-(6-(1-(trifluoromethyl)cyclopropyl)imidazo[1,2-a]pyrazin-3-yl)pyridin-2-amine]: 1.4 nM; for `FC(F)c1cn2c(-c3cccc(N[C@H]4CNC[C@@H]4F)n3)cnc2cn1` [Compound 16, 6-(6-(difluoromethyl)imidazo[1,2-a]pyrazin-3-yl)-N-((3S,4S)-4-fluoropyrrolidin-3-yl)pyridin-2-amine]: 0.14 nM; for `FC(F)c1cn2c(-c3cccc(N[C@H]4CNCC[C@@H]4F)n3)cnc2cn1` [Compound 25, 6-(6-(difluoromethyl)imidazo[1,2-a]pyrazin-3-yl)-N-((3S,4S)-4-fluoropiperidin-3-yl)pyridin-2-amine]: 0.34 nM.
The same measure for `CC(C)(O)c1cn2c(-c3cccc(N[C@@H]4CCCNC4)n3)cnc2cn1` [Compound 30, (R)-2-(3-(6-(piperidin-3-ylamino)pyridin-2-yl)imidazo[1,2-a]pyrazin-6-yl)propan-2-ol]: 2.9 nM.
In turn, `CC(C)(O)c1cn2c(-c3cccc(N[C@H]4CNCC[C@@H]4F)n3)cnc2cn1` [Compound 31, 2-(3-(6-(((3S,4S)-4-fluoropiperidin-3-yl)amino)pyridin-2-yl)imidazo[1,2-a]pyrazin-6-yl)propan-2-ol] yielded a Kd of 1.5 nM.
In the case of `FC(F)(F)COc1cn2c(-c3cccc(N[C@@H]4CCNC4)n3)cnc2cn1` [Compound 38, (R)-N-(pyrrolidin-3-yl)-6-(6-(2,2,2-trifluoroethoxy)imidazo[1,2-a]pyrazin-3-yl)pyridin-2-amine], the affinity, expressed as Kd, was 2.3 nM.
The molecule `F[C@H]1CNC[C@@H]1Nc1cccc(-c2cnc3cnc(C4CC4)cn23)n1` [Compound 50, 6-(6-cyclopropylimidazo[1,2-a]pyrazin-3-yl)-N-((3S,4S)-4-fluoropyrrolidin-3-yl)pyridin-2-amine] came in with a Kd of 0.091 nM.
The same measure for `Cn1cc(-c2cn3c(-c4cccc(N[C@H]5CNC[C@@H]5F)n4)cnc3cn2)cn1` [Compound 52, N-((3S,4S)-4-fluoropyrrolidin-3-yl)-6-(6-(1-methyl-1H-pyrazol-4-yl)imidazo[1,2-a]pyrazin-3-yl)pyridin-2-amine]: 0.13 nM.
